Results taken from ChEMBL document CHEMBL1129595, “Potent 6-desfluoro-8-methylquinolones as new lead compounds in antibacterial chemotherapy” (J Med Chem, 1996).
Converted amounts (≈) assume the structure as drawn.

Columns and labels:
Streptococcus pneumoniae = experiment: In vitro antibacterial activity against Streptococcus pneumoniae I 0.43; format: functional
Proteus mirabilis = experiment: In vitro antibacterial activity against Proteus mirabilis OBT 505; format: functional
Staphylococcus aureus [1] = experiment: In vitro antibacterial activity against Staphylococcus aureus MPR 5; format: functional
Haemophilus influenzae = experiment: In vitro antibacterial activity against Haemophilus influenzae; format: functional
Proteus vulgaris = experiment: In vitro antibacterial activity against Proteus vulgaris CNUR 6; format: functional
Pseudomonas aeruginosa [2] = experiment: In vitro antibacterial activity against Pseudomonas aeruginosa […] 9027; format: functional
[3] = Mean MIC against gram negative; format: functional
Streptococcus pyogenes = experiment: In vitro antibacterial activity against Streptococcus pyogenes OMNFI BI; format: functional
Staphylococcus aureus [4] = experiment: In vitro antibacterial activity against Staphylococcus aureus ATCC 29213; format: functional
Escherichia coli [5] = experiment: In vitro antibacterial activity against Escherichia coli 120; format: functional
Enterococcus faecalis [6] = experiment: In vitro antibacterial activity against Enterococcus faecalis LEP Br; format: functional
Staphylococcus aureus [7] = experiment: In vitro antibacterial activity against Staphylococcus aureus CPX-R OBT 687; format: functional
DNA gyrase = DNA gyrase (Escherichia coli, UniProt P0AES4+P0AES6); experiment: Inhibitory effect against Escherichia coli Gyrase in Supercoiling assay; format: protein-complex assay
[8] = Mean MIC Against gram positive; format: functional
Enterococcus faecalis [9] = experiment: In vitro antibacterial activity against Enterococcus faecalis UCMC 39690; format: functional
Escherichia coli [10] = experiment: In vitro antibacterial activity against Escherichia coliCPX-R OBT 431; format: functional
Klebsiella pneumoniae = experiment: In vitro antibacterial activity against Klebsiella pneumoniae ATCC 10031; format: functional
Escherichia coli [11] = experiment: In vitro antibacterial activity against Escherichia coli ATCC 25922; format: functional
Enterobacter cloacae = experiment: In vitro antibacterial activity against Enterobacter cloacae OMNFI 174; format: functional
Staphylococcus aureus [12] = experiment: In vitro antibacterial activity against Staphylococcus aureus M-R POMM 6214; format: functional
Pseudomonas aeruginosa [13] = experiment: In vitro antibacterial activity against Pseudomonas aeruginosa OBT 307; format: functional
[14] = Mean MIC against gram positive; format: functional

SMILES	MIC (Streptococcus pneumoniae)	MIC (Proteus mirabilis)	MIC (Staphylococcus aureus [1])	MIC (Haemophilus influenzae)	MIC (Proteus vulgaris)	MIC (Pseudomonas aeruginosa [2])	MIC [3]	MIC (Streptococcus pyogenes)	MIC (Staphylococcus aureus [4])	MIC (Escherichia coli [5])	MIC (Enterococcus faecalis [6])	MIC (Staphylococcus aureus [7])	IC50 (DNA gyrase)	MIC (Enterococcus faecalis [9])	MIC (Escherichia coli [10])	MIC (Klebsiella pneumoniae)	MIC (Escherichia coli [11])	MIC (Enterobacter cloacae)	MIC (Staphylococcus aureus [12])	MIC (Pseudomonas aeruginosa [13])	also measured
Cc1c(N2CCN(C)CC2)c(N)cc2c(=O)c(C(=O)O)cn(C3CC3)c12	8 µg/mL (≈ 22.4 µM)	1 µg/mL (≈ 2.81 µM)	1 µg/mL (≈ 2.81 µM)	0.03 µg/mL (≈ 0.0842 µM)	8 µg/mL (≈ 22.4 µM)	2 µg/mL (≈ 5.61 µM)	0.459 µg/mL (≈ 1.29 µM)	4 µg/mL (≈ 11.2 µM)	1 µg/mL (≈ 2.81 µM)	0.06 µg/mL (≈ 0.168 µM)	2 µg/mL (≈ 5.61 µM)	> 16 µg/mL	10.7 µM	4 µg/mL (≈ 11.2 µM)	> 16 µg/mL	0.03 µg/mL (≈ 0.0842 µM)	0.03 µg/mL (≈ 0.0842 µM)	0.125 µg/mL (≈ 0.351 µM)	4 µg/mL (≈ 11.2 µM)	8 µg/mL (≈ 22.4 µM)	MIC [14]: 3.36 µg/mL (≈ 9.44 µM)
Cc1c(N2CCc3ccccc3C2)c(F)cc2c(=O)c(C(=O)O)cn(C3CC3)c12	0.25 µg/mL (≈ 0.637 µM)	4 µg/mL (≈ 10.2 µM)	< 0.016 µg/mL	< 0.016 µg/mL	4 µg/mL (≈ 10.2 µM)	4 µg/mL (≈ 10.2 µM)	0.869 µg/mL (≈ 2.21 µM)	0.03 µg/mL (≈ 0.0764 µM)	< 0.016 µg/mL	0.25 µg/mL (≈ 0.637 µM)	0.5 µg/mL (≈ 1.27 µM)	1 µg/mL (≈ 2.55 µM)	7.64 µM	0.06 µg/mL (≈ 0.153 µM)	> 16 µg/mL	0.06 µg/mL (≈ 0.153 µM)	0.125 µg/mL (≈ 0.319 µM)	0.5 µg/mL (≈ 1.27 µM)	< 0.016 µg/mL	16 µg/mL (≈ 40.8 µM)	MIC [14]: 0.074 µg/mL (≈ 0.189 µM)

Further lines, with some results ahead:

MIC (Streptococcus pneumoniae)	MIC (Proteus mirabilis)	MIC (Staphylococcus aureus [1])	MIC (Haemophilus influenzae)	MIC (Proteus vulgaris)	MIC (Pseudomonas aeruginosa [2])	MIC [3]	MIC (Streptococcus pyogenes)	MIC (Staphylococcus aureus [4])	MIC (Escherichia coli [5])	MIC (Enterococcus faecalis [6])	MIC (Staphylococcus aureus [7])	IC50 (DNA gyrase)	MIC (Enterococcus faecalis [9])	MIC (Escherichia coli [10])	MIC (Klebsiella pneumoniae)	MIC (Escherichia coli [11])	MIC (Enterobacter cloacae)	MIC (Staphylococcus aureus [12])	MIC (Pseudomonas aeruginosa [13])	SMILES	also measured
1 µg/mL (≈ 3.03 µM)	2 µg/mL (≈ 6.05 µM)	0.03 µg/mL (≈ 0.0908 µM)	< 0.016 µg/mL	> 16 µg/mL	4 µg/mL (≈ 12.1 µM)	0.71 µg/mL (≈ 2.15 µM)	8 µg/mL (≈ 24.2 µM)	0.03 µg/mL (≈ 0.0908 µM)	0.25 µg/mL (≈ 0.757 µM)	0.5 µg/mL (≈ 1.51 µM)	> 16 µg/mL	97.2 µM	0.25 µg/mL (≈ 0.757 µM)	> 16 µg/mL	< 0.016 µg/mL	0.125 µg/mL (≈ 0.378 µM)	0.5 µg/mL (≈ 1.51 µM)	0.25 µg/mL (≈ 0.757 µM)	4 µg/mL (≈ 12.1 µM)	O=C(O)c1cn(C2CC2)c2cc(N3CCCCC3)c(F)cc2c1=O	MIC [8]: 0.495 µg/mL (≈ 1.5 µM)
< 0.016 µg/mL	4 µg/mL (≈ 12.3 µM)	< 0.016 µg/mL	< 0.016 µg/mL	8 µg/mL (≈ 24.5 µM)	4 µg/mL (≈ 12.3 µM)	0.534 µg/mL (≈ 1.64 µM)	0.03 µg/mL (≈ 0.0919 µM)	< 0.016 µg/mL	0.03 µg/mL (≈ 0.0919 µM)	1 µg/mL (≈ 3.06 µM)	1 µg/mL (≈ 3.06 µM)	10.1 µM	0.03 µg/mL (≈ 0.0919 µM)	> 16 µg/mL	< 0.016 µg/mL	0.03 µg/mL (≈ 0.0919 µM)	0.25 µg/mL (≈ 0.766 µM)	< 0.016 µg/mL	16 µg/mL (≈ 49 µM)	Cc1c(N2CCCCC2)ccc2c(=O)c(C(=O)O)cn(C3CC3)c12	MIC [14]: 0.052 µg/mL (≈ 0.159 µM)
< 0.016 µg/mL	1 µg/mL (≈ 2.9 µM)	< 0.016 µg/mL	< 0.016 µg/mL	2 µg/mL (≈ 5.81 µM)	1 µg/mL (≈ 2.9 µM)	0.29 µg/mL (≈ 0.842 µM)	< 0.016 µg/mL	< 0.016 µg/mL	< 0.016 µg/mL	0.03 µg/mL (≈ 0.0871 µM)	0.125 µg/mL (≈ 0.363 µM)	6.97 µM	< 0.016 µg/mL	16 µg/mL (≈ 46.5 µM)	< 0.016 µg/mL	< 0.016 µg/mL	0.5 µg/mL (≈ 1.45 µM)	< 0.016 µg/mL	4 µg/mL (≈ 11.6 µM)	Cc1c(N2CCCCC2)c(F)cc2c(=O)c(C(=O)O)cn(C3CC3)c12	MIC [14]: 0.022 µg/mL (≈ 0.0639 µM)
